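48-hour exposure; five concentrations; linearly interpolated endpoints. The concentration for 50% growth inhibition is given as GI50. TGI marks complete inhibition of growth.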
Tests used:
Assay in all cases: growth of human tumour cells (NCI), 48 h; in the data active = GI50 below about 0.43 µM; inactive = the rest
HCC-2998 colon = test system: HCC-2998 colon
SK-MEL-5 melanoma = test system: SK-MEL-5 melanoma
CAKI-1 renal = test system: CAKI-1 renal
MCF7 breast = test system: MCF7 breast
NCI-H23 lung = test system: NCI-H23 lung
HOP-62 NSCLC = test system: HOP-62 NSCLC
RXF 393 renal = test system: RXF 393 renal
K-562 leukemia = test system: K-562 leukemia
TK-10 renal = test system: TK-10 renal
SK-MEL-28 melanoma = test system: SK-MEL-28 melanoma
U251 CNS = test system: U251 CNS
COLO 205 colon = test system: COLO 205 colon
UACC-62 melanoma = test system: UACC-62 melanoma
SNB-19 CNS = test system: SNB-19 CNS
OVCAR-4 ovarian = test system: OVCAR-4 ovarian
SF-295 CNS = test system: SF-295 CNS
NCI-H460 lung = test system: NCI-H460 lung
HCT-15 colon = test system: HCT-15 colon
PC-3 prostate = test system: PC-3 prostate
RPMI-8226 leukemia = test system: RPMI-8226 leukemia
SW-620 colon = test system: SW-620 colon
UO-31 renal = test system: UO-31 renal
NCI-H522 lung = test system: NCI-H522 lung
NCI/ADR-RES ovarian = test system: NCI/ADR-RES ovarian
SK-MEL-2 melanoma = test system: SK-MEL-2 melanoma
OVCAR-8 ovarian = test system: OVCAR-8 ovarian
A549 NSCLC = test system: A549 NSCLC
MDA-N = test system: MDA-N
KM12 colon = test system: KM12 colon
SF-539 CNS = test system: SF-539 CNS
A498 renal = test system: A498 renal
MDA-MB-435 = test system: MDA-MB-435
MALME-3M melanoma = test system: MALME-3M melanoma
HT29 colon = test system: HT29 colon
MOLT-4 leukemia = test system: MOLT-4 leukemia
DU-145 prostate = test system: DU-145 prostate
M14 melanoma = test system: M14 melanoma
T-47D breast = test system: T-47D breast
OVCAR-3 ovarian = test system: OVCAR-3 ovarian
ACHN renal = test system: ACHN renal
SR leukemia = test system: SR leukemia
786-0 renal = test system: 786-0 renal
MDA-MB-231 breast = test system: MDA-MB-231 breast
SN12C renal = test system: SN12C renal
OVCAR-5 ovarian = test system: OVCAR-5 ovarian
HCT-116 colon = test system: HCT-116 colon
SF-268 CNS = test system: SF-268 CNS
SK-OV-3 ovarian = test system: SK-OV-3 ovarian
CCRF-CEM leukemia = test system: CCRF-CEM leukemia
HL-60(TB) leukemia = test system: HL-60(TB) leukemia
EKVX NSCLC = test system: EKVX NSCLC
NCI-H226 lung = test system: NCI-H226 lung
HOP-92 NSCLC = test system: HOP-92 NSCLC
IGROV1 ovarian = test system: IGROV1 ovarian
BT-549 breast = test system: BT-549 breast
LOX IMVI melanoma = test system: LOX IMVI melanoma
HS 578T breast = test system: HS 578T breast
SNB-75 CNS = test system: SNB-75 CNS
UACC-257 melanoma = test system: UACC-257 melanoma

CNC(=O)CCNC(=O)CCC(=O)N(C)C
> 100 µM: TGI (HCC-2998 colon) | TGI (SK-MEL-5 melanoma) | TGI (CAKI-1 renal) | TGI (MCF7 breast) | TGI (NCI-H23 lung) | TGI (HOP-62 NSCLC) | TGI (RXF 393 renal) | TGI (K-562 leukemia) | TGI (TK-10 renal) | TGI (SK-MEL-28 melanoma) | TGI (U251 CNS) | TGI (COLO 205 colon) | TGI (UACC-62 melanoma) | TGI (SNB-19 CNS) | TGI (OVCAR-4 ovarian) | TGI (SF-295 CNS) | TGI (NCI-H460 lung) | TGI (HCT-15 colon) | TGI (PC-3 prostate) | TGI (RPMI-8226 leukemia) | TGI (SW-620 colon) | TGI (UO-31 renal) | TGI (NCI-H522 lung) | TGI (NCI/ADR-RES ovarian) | TGI (SK-MEL-2 melanoma) | TGI (OVCAR-8 ovarian) | TGI (A549 NSCLC) | TGI (MDA-N) | TGI (KM12 colon) | TGI (SF-539 CNS) | TGI (A498 renal) | TGI (MDA-MB-435) | TGI (MALME-3M melanoma) | TGI (HT29 colon) | TGI (MOLT-4 leukemia) | TGI (DU-145 prostate) | TGI (M14 melanoma) | TGI (T-47D breast) | TGI (OVCAR-3 ovarian) | TGI (ACHN renal) | TGI (SR leukemia) | TGI (786-0 renal) | TGI (MDA-MB-231 breast) | TGI (SN12C renal) | TGI (OVCAR-5 ovarian) | TGI (HCT-116 colon) | TGI (SF-268 CNS) | TGI (SK-OV-3 ovarian)

COc1cc(N2CCN(C(C)C)CC2)ccc1Nc1nc(Nc2cccc3ncccc23)c2cc[nH]c2n1
> 22.4 µM: TGI (CCRF-CEM leukemia)
> 14.9 µM: TGI (HOP-62 NSCLC)
17.9 µM: TGI (SF-295 CNS)
11.6 µM: TGI (UO-31 renal)
8.15 µM: TGI (SF-539 CNS)
14.9 µM: TGI (SW-620 colon)
> 23.2 µM: TGI (MOLT-4 leukemia)
12 µM: TGI (A498 renal)
7.11 µM: TGI (HCT-116 colon)
5.54 µM: TGI (HT29 colon)
13.6 µM: TGI (BT-549 breast) | TGI (T-47D breast)
10.6 µM: TGI (OVCAR-3 ovarian)
9.05 µM: TGI (NCI-H522 lung)
> 15.4 µM: TGI (SNB-75 CNS)
inactive: GI50 (HCC-2998 colon) 3.17 µM | GI50 (SK-MEL-5 melanoma) 3.41 µM | GI50 (CAKI-1 renal) 10 µM | GI50 (MCF7 breast) 1.3 µM | GI50 (NCI-H23 lung) 5.7 µM | GI50 (HOP-62 NSCLC) 3.18 µM | GI50 (RXF 393 renal) 3.93 µM | GI50 (K-562 leukemia) 5.34 µM | GI50 (TK-10 renal) 3.97 µM | GI50 (SK-MEL-28 melanoma) 4.77 µM | GI50 (U251 CNS) 4.54 µM | GI50 (COLO 205 colon) 1.38 µM | GI50 (UACC-62 melanoma) 4.06 µM | GI50 (SNB-19 CNS) 8.99 µM | GI50 (CCRF-CEM leukemia) 6.36 µM | GI50 (OVCAR-4 ovarian) 7.54 µM | GI50 (SF-295 CNS) 5.46 µM | GI50 (NCI-H460 lung) 6.16 µM | GI50 (HCT-15 colon) 4.35 µM | GI50 (PC-3 prostate) 8.99 µM | GI50 (RPMI-8226 leukemia) 5.68 µM | GI50 (SW-620 colon) 3.6 µM | GI50 (HL-60(TB) leukemia) 3.26 µM | GI50 (UO-31 renal) 3.79 µM | GI50 (NCI-H522 lung) 3.97 µM | GI50 (NCI/ADR-RES ovarian) 8.45 µM | GI50 (SK-MEL-2 melanoma) 4.63 µM | GI50 (EKVX NSCLC) 8.83 µM | GI50 (OVCAR-8 ovarian) 5.86 µM | GI50 (A549 NSCLC) 2.92 µM | GI50 (NCI-H226 lung) 4.82 µM | GI50 (KM12 colon) 5.56 µM | GI50 (SF-539 CNS) 3.94 µM | GI50 (HOP-92 NSCLC) 0.464 µM | GI50 (IGROV1 ovarian) 12.1 µM | GI50 (A498 renal) 0.811 µM | GI50 (MDA-MB-435) 5.47 µM | GI50 (MALME-3M melanoma) 4.52 µM | GI50 (BT-549 breast) 4.75 µM | GI50 (HT29 colon) 1.5 µM | GI50 (MOLT-4 leukemia) 7.51 µM | GI50 (DU-145 prostate) 6.55 µM | GI50 (LOX IMVI melanoma) 3.3 µM | GI50 (HS 578T breast) 5.42 µM | GI50 (SNB-75 CNS) 3.99 µM | GI50 (M14 melanoma) 4.13 µM | GI50 (T-47D breast) 3.8 µM | GI50 (OVCAR-3 ovarian) 4.75 µM | GI50 (ACHN renal) 7.45 µM | GI50 (SR leukemia) 1.14 µM | GI50 (UACC-257 melanoma) 3.67 µM | GI50 (786-0 renal) 5.27 µM | GI50 (MDA-MB-231 breast) 4.37 µM | GI50 (SN12C renal) 15.7 µM | GI50 (OVCAR-5 ovarian) 2.5 µM | GI50 (HCT-116 colon) 3.04 µM | GI50 (SF-268 CNS) 5.21 µM | GI50 (SK-OV-3 ovarian) 5.58 µM
> 21.6 µM: TGI (HCT-15 colon)
15.4 µM: TGI (SF-268 CNS)
15.1 µM: TGI (U251 CNS)
18.4 µM: TGI (K-562 leukemia)
> 11.1 µM: TGI (SR leukemia)
11.5 µM: TGI (SK-MEL-2 melanoma)
8.04 µM: TGI (M14 melanoma)
19.1 µM: TGI (SK-OV-3 ovarian)
11 µM: TGI (MDA-MB-231 breast)
5.96 µM: TGI (COLO 205 colon)
2.85 µM: TGI (HOP-92 NSCLC)
9.77 µM: TGI (HCC-2998 colon)
24.6 µM: TGI (DU-145 prostate)
14.8 µM: TGI (HL-60(TB) leukemia)
9.64 µM: TGI (MALME-3M melanoma)
9.56 µM: TGI (SK-MEL-28 melanoma)
12.4 µM: TGI (786-0 renal)
> 22.7 µM: TGI (OVCAR-8 ovarian)
24.3 µM: TGI (HS 578T breast)
> 25 µM: TGI (CAKI-1 renal) | TGI (MCF7 breast) | TGI (NCI-H23 lung) | TGI (SNB-19 CNS) | TGI (OVCAR-4 ovarian) | TGI (PC-3 prostate) | TGI (NCI/ADR-RES ovarian) | TGI (EKVX NSCLC) | TGI (NCI-H226 lung) | TGI (KM12 colon) | TGI (IGROV1 ovarian) | TGI (MDA-MB-435) | TGI (ACHN renal) | TGI (SN12C renal) | TGI (OVCAR-5 ovarian)
> 23.5 µM: TGI (NCI-H460 lung)
9.38 µM: TGI (RXF 393 renal)
6.95 µM: TGI (LOX IMVI melanoma)
15.6 µM: TGI (A549 NSCLC)
8.53 µM: TGI (UACC-62 melanoma)
19.4 µM: TGI (TK-10 renal)
8.14 µM: TGI (UACC-257 melanoma)
17.8 µM: TGI (RPMI-8226 leukemia)
6.66 µM: TGI (SK-MEL-5 melanoma)

O=[N+]([O-])c1ccc(N=Nc2c(O)ccc3cc(S(=O)(=O)O)ccc23)cc1
> 100 µM: TGI (SK-MEL-5 melanoma) | TGI (CAKI-1 renal) | TGI (NCI-H23 lung) | TGI (HOP-62 NSCLC) | TGI (RXF 393 renal) | TGI (K-562 leukemia) | TGI (TK-10 renal) | TGI (SK-MEL-28 melanoma) | TGI (U251 CNS) | TGI (COLO 205 colon) | TGI (UACC-62 melanoma) | TGI (SNB-19 CNS) | TGI (CCRF-CEM leukemia) | TGI (OVCAR-4 ovarian) | TGI (SF-295 CNS) | TGI (HCT-15 colon) | TGI (PC-3 prostate) | TGI (RPMI-8226 leukemia) | TGI (SW-620 colon) | TGI (UO-31 renal) | TGI (NCI-H522 lung) | TGI (NCI/ADR-RES ovarian) | TGI (SK-MEL-2 melanoma) | TGI (EKVX NSCLC) | TGI (OVCAR-8 ovarian) | TGI (A549 NSCLC) | TGI (MDA-N) | TGI (KM12 colon) | TGI (HOP-92 NSCLC) | TGI (IGROV1 ovarian) | TGI (A498 renal) | TGI (MDA-MB-435) | TGI (MALME-3M melanoma) | TGI (BT-549 breast) | TGI (HT29 colon) | TGI (MOLT-4 leukemia) | TGI (DU-145 prostate) | TGI (LOX IMVI melanoma) | TGI (HS 578T breast) | TGI (SNB-75 CNS) | TGI (M14 melanoma) | TGI (T-47D breast) | TGI (OVCAR-3 ovarian) | TGI (ACHN renal) | TGI (UACC-257 melanoma) | TGI (786-0 renal) | TGI (MDA-MB-231 breast) | TGI (SN12C renal) | TGI (OVCAR-5 ovarian) | TGI (HCT-116 colon) | TGI (SF-268 CNS) | TGI (SK-OV-3 ovarian)

Reference: PubChem BioAssay (NCI)
